Source: patent US8283106B2, “Sulfonic acid salt and derivative thereof, photoacid generator agent, and resist material and pattern formation method using the photoacid generator agent” (Central Glass Company, Limited, priority 2007, dated 2012)
Read-outs that look alike come from different tables or passages of the source.

Key:
[1] = Resist solvent solubility; format: physicochemical
Protocol: Using propylene glycol monomethyl ether acetate (PGMEA) as a resist solvent, the solubility of PAG 1 to PAG 6 in the resist solvent was measured.

[2] = Resist compatibility of acid generator with base resin in resist composition; format: physicochemical; conditions: for Compatibility: acid generator (1.0), PGMEA (400)
Protocol: Resist compositions were prepared using the above sulfonic acid onium salts PAG 1 and PAG 2 as acid generators and the following polymers (Resin 1 to 5) as base resins. Resist solutions were obtained by filtering the resist compositions with […] membrane filters, respectively.
Each of the obtained resist solutions was spin-coated on a silicon wafer to form a resist film of 250 nm thickness. The resist film was prebaked at 110° C., exposed to a 248-nm ultraviolet ray through a photomask, and then, subjected to post exposure baking treatment at 120° C. After that, the resist film was developed with a […] aqueous tetramethylammonium hydroxide solution for 1 minute at 23° C.
For comparison purposes, the above sulfonic acid onium salts PAG 3, PAG 4 and PAG 7 were tested for the resist compatibility and resist resolution under the same conditions as to the above working examples.

resist solvent solubility relative to urethane bond-free sulfonic acid onium salts (PAG 3 to PAG 6) ([1]; PGMEA)	Compatibility ([2]; Resin 1 (40 pts. wt.))	Compatibility ([2]; Resin 2 (40 pts. wt.))	Compatibility ([2]; Resin 3 (40 pts. wt.))	Compatibility ([2]; Resin 4 (40 pts. wt.))	Compatibility ([2]; Resin 5 (40 pts. wt.))	resist compatibility compared with the conventional salts ([2]; summary of TABLES 2 and 3)	Compound	Solubility ([1]; resist solvent propylene glycol monomethyl ether acetate (PGMEA))	Solubility [1]
twice or more higher	Good	Good	Good	Good	Good	higher resist compatibility	O=C(NC12CC3CC(CC(C3)C1)C2)OCC(F)(F)S(=O)(=O)O [PAG 2, triphenylsulfonium adamantane-1-yl-carbamic acid-2,2-difluoroethylsulfonate]	0.7 parts by weight of PAG dissolved in 100 parts by weigh of PGMEA	
							O=C(OCC(F)(F)S(=O)(=O)O)C12CC3CC(CC(C3)C1)C2 [PAG 6, triphenylsulfonium 2-(1′-adamantane)carbonyloxy-1,1-difluoroethanesulfonate]		0.2 parts by weight of PAG dissolved in 100 parts by weigh of PGMEA
	Slightly poor	Slightly poor	Slightly poor	Slightly poor	Slightly poor		triphenylsulfonium cyclohexyloxycarbonyldifluoromethanesulfonate [PAG 3]		0.4 parts by weight of PAG dissolved in 100 parts by weigh of PGMEA

Compound	resist solvent solubility relative to urethane bond-free sulfonic acid onium salts (PAG 3 to PAG 6) ([1]; PGMEA)	Compatibility ([2]; Resin 1 (40 pts. wt.))	Compatibility ([2]; Resin 2 (40 pts. wt.))	Compatibility ([2]; Resin 3 (40 pts. wt.))	Compatibility ([2]; Resin 4 (40 pts. wt.))	Compatibility ([2]; Resin 5 (40 pts. wt.))	resist compatibility compared with the conventional salts ([2]; summary of TABLES 2 and 3)	Solubility ([1]; resist solvent propylene glycol monomethyl ether acetate (PGMEA))	Solubility [1]
O=C(OCC12CC3CC(CC(C3)C1)C2)C(F)(F)S(=O)(=O)O [PAG 4, triphenylsulfonium (adamantane-1-yl-methyl)oxycarbonyldifluoromethanesulfonate]		Good	Good	Good	Good	Good			0.3 parts by weight of PAG dissolved in 100 parts by weigh of PGMEA
